Data published in patent publication US20150080234A1, “Cell Patterning” (priority 2013, published 2015).

Experiments:
cell motility = settings: cited from earlier work
GHOST cells = assay: cell pattern maintenance / cell migration inhibition assay (media additives and hydrogels); type: cell-based
Experimental: One significant advantage afforded by WAP is the ability to an addressable link with stimuli with delayed signal development in cells, such as infection, proliferation, or migration. For implementation of the nano-neutralization assay, a technique for preventing pattern disruption was developed over time due to proliferation and migration of GHOST cells over the course of infection signal development. The effect of several media additives and hydrogels for the maintenance of patterns was tested.
Cell patterns were formed as described above. Arrays were imaged at 0, 24, and 48 hrs immediately after addition of 1 μM calcein AM live cell stain (Life Technologies) in PBS. Media additives were diluted directly into culture media at the indicated concentration. Cell proliferation (P) was calculated per block (4 wells per block) as the ratio of cells at time of imaging to the number of starting cells at time zero. Cell migration (M) was calculated as Nfull×P−Nwell, where Nfull is the number of cells per field of view, P is the proliferation rate, and Nwell is the number of cells per well.

ACH2 cells = assay: virus production by ACH2 cells in micro-wells detected by WAP; type: cell-based; settings: ACH2 cells stimulated vs unstimulated, all loading densities, FIG. 6(b)
Experimental: FIGS. 6(a)-(b) illustrate one embodiment of detection/analysis of latently infected T cells using WAP. That is, as shown, WAP can be applied to study functional characteristics, such as virus production, of cells loaded into micro-wells. ACH2 cells produce HIV virus when stimulated with the cytokine TNFα. […] These cells produce virus when stimulated with TNFα, which can be contained in the media. The target cell coated slide is incubated with the array, removed, then allowed to incubate while biological signal develops (e.g. GFP accumulation). […] The median percent infection is higher in the presence of TNFα for each ACH2 cell count. In addition to assaying viral production capability, functional characteristics of virus producing cells in the micro-wells, such as gene expression, surface marker expression, or secretion of biomolecules of interest could provide functional information about virally infected cells.

CCR5 = CCR5 (Homo sapiens, UniProt P51681); settings: lowers the effective CCR5 concentration; cited from earlier work
Sequence of CCR5 (P51681 whole entry): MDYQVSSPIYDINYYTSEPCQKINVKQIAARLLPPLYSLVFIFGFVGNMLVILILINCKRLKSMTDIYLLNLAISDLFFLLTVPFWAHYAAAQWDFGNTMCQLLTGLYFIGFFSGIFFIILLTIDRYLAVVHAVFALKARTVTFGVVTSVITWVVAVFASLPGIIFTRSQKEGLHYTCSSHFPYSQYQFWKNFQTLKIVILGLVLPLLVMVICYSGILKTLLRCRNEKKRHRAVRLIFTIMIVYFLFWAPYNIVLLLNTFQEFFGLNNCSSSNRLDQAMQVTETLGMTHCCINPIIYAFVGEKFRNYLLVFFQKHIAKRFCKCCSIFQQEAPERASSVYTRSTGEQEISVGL

Compound: CS(=O)(=O)c1cccc(CNc2nc(Nc3ccc4c(c3)CCC(=O)N4)ncc2C(F)(F)F)c1 [PF-573228]
- effect on cell motility and adhesion (cell motility): inhibit cell motility but not adhesion
- individual pattern maintenance for the time required for signal development (GHOST cells; 10 μM): resulted in individual pattern maintenance
- proliferation of patterned cells (Nt/Nto per block) (GHOST cells; FIG. 15(b), 24 or 48 hours): reduced proliferation of patterned cells
- migration of patterned cells (number of cells migrating out of patterns) (GHOST cells; FIG. 15(c), p<0.0001 Mann-Whitney U test): reduced migration of patterned cells
- loss of cell patterns (GHOST cells; added to media, 0 hr vs 24 hrs post patterning, FIG. 9(f)): prevents loss of cell patterns

Compound: C[C@@H](N)[C@H]1CC[C@H](C(=O)Nc2ccncc2)CC1 [Y-27632]
- effect on cell motility and adhesion (cell motility): inhibit cell motility but not adhesion

Compound: TNFα
- median percent infection of patterned cells (ACH2 cells): greater median percent infection

Compound: Cc1ccc(-c2ccc3c(c2)C=C(C(=O)Nc2ccc(C[N+](C)(C)C4CCOCC4)cc2)CCC3)cc1.[Cl-] [TAK779]
- effect on HIV-1 entry (CCR5): slows HIV-1 entry
